Experimental data published in patent US10144742B2 (Millennium Pharmaceuticals, Inc., priority 2014, dated 2018).

Assays:
[1] = system: PC3 cells; assay: PC3 growth inhibition (Cell-titer glo, 72 hours); assay type: cell-based; details: Homo sapiens, PC-3; compound concentration 1.667 μM; PC3 cells, 72 hours, Cell-titer glo; read-out: Percent Inhibition (PC3 growth inhibition)
In short: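 Compounds in AIM serum-free medium were applied for 72 h at 37 °C, 5% CO2 to PC3 cells plated overnight from RPMI1640 culture. Luminescence after 10 min CellTiter-Glo, normalised to DMSO, gave % viability at 1 μM or 1.667 μM, or GI50/LD50.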

[2] = biological target: hNAMPT protein (Homo sapiens (Human), UniProt P43490); assay: NAMPT enzyme assay (TR-FRET/HTRF, BodiPY ligand, anti 6His-Tb); assay type: binding; details: for IC50: NAMPT inhibition, IC50 range class, read-out: IC50; for inhibition at 1 µM: NAMPT inhibition at compound concentration 1 μM
hNAMPT protein, sequence (P43490 whole entry): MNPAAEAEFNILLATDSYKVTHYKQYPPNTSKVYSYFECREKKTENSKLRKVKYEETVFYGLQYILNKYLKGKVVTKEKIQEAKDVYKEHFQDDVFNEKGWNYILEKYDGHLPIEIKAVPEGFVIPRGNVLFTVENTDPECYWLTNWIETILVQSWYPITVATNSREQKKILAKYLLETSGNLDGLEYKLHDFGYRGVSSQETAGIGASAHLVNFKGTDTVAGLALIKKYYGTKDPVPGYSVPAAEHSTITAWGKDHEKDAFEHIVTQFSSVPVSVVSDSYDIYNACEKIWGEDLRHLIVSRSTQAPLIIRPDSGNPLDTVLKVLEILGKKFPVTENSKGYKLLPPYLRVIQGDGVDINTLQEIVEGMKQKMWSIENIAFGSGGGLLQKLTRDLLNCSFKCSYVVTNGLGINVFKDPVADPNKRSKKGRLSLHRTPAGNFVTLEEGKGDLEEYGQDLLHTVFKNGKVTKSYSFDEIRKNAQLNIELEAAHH
In short: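 Compound or DMSO was incubated for 1 h at room temperature, protected from light, with BodiPY ligand and hNAMPT labelled by terbium anti-6His antibody. The 520 nm to 486 nm emission ratio after 320 nm excitation gave inhibition versus vehicle, from which concentration-response curves yielded IC50.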

Row | SMILES | inhibition at 1.667 µM [1] | inhibition at 0.333 µM ([2]; NAMPT inhibition at compound concentration 0.333 μM (data at 1 uM not available due to solubility limitations), read-out: Percent Inhibition) | IC50 [2] | inhibition at 1 µM ([2]; read-out: Percent Inhibition)
1 | O=C(NCCc1ncc[nH]1)c1ccc2nc(-c3ccc(F)cc3)c(-c3ccc(Cl)s3)nc2c1 [Compound I-443, N-(2-(1H-imidazol-2-yl)ethyl)-3-(5-chlorothiophen-2-yl)-2-(4-fluorophenyl)quinoxaline-6-carboxamide] | 11% | 57% | 100 to 500 nM | 
2 | CC(C)c1nc2ccc(C(=O)NCCCc3ncc[nH]3)cc2nc1-c1ccc(F)cc1 [Compound I-444, 3-(4-fluorophenyl)-N-[3-(1H-imidazol-2-yl)propyl]-2-isopropylquinoxaline-6-carboxamide] | 1% |  | 100 to 500 nM | 77%
3 | Cc1ccc(C(F)(F)F)cc1-c1nc2cc(C(=O)NCCCc3ncc[nH]3)ccc2nc1-c1ccc(F)cc1 [Compound I-445, 2-(4-fluorophenyl)-N-[3-(1H-imidazol-2-yl)propyl]-3-[2-methyl-5-(trifluoromethyl)phenyl]quinoxaline-6-carboxamide] | 2% |  | < 100 nM | 91%
4 | Cc1noc(C)c1COc1nc2ccc(C(=O)NCCCc3ncc[nH]3)cc2nc1-c1ccc(F)cc1 [Compound I-446, 2-[(3,5-dimethylisoxazol-4-yl)methoxy]-3-(4-fluorophenyl)-N-[3-(1H-imidazol-2-yl)propyl]quinoxaline-6-carboxamide] | 2% |  | < 100 nM | > 99%
5 | CCOc1cccc(-c2nc3cc(C(=O)NCCCc4ncc[nH]4)ccc3nc2-c2ccc(F)cc2)c1 [Compound I-447, 3-(3-ethoxyphenyl)-2-(4-fluorophenyl)-N-[3-(1H-imidazol-2-yl)propyl]quinoxaline-6-carboxamide] | 2% |  | < 100 nM | 99%
6 | COc1ccc(-c2nc3cc(C(=O)NCCCc4ncc[nH]4)ccc3nc2-c2ccc(F)cc2)cc1 [Compound I-448, 2-(4-fluorophenyl)-N-[3-(1H-imidazol-2-yl)propyl]-3-(4-methoxyphenyl)quinoxaline-6-carboxamide] | 2% |  | 100 to 500 nM | 67%
7 | O=C(NCCCc1ncc[nH]1)c1ccc2nc(-c3ccc(F)cc3)c(-c3cc(F)c(F)c(F)c3)nc2c1 [Compound I-449, 2-(4-fluorophenyl)-N-[3-(1H-imidazol-2-yl)propyl]-3-(3,4,5-trifluorophenyl)quinoxaline-6-carboxamide] | 3% |  | 100 to 500 nM | 82%
8 | Cc1ccc(C)c(-c2nc3cc(C(=O)NCCCc4ncc[nH]4)ccc3nc2-c2ccc(F)cc2)c1 [Compound I-450, 3-(2,5-dimethylphenyl)-2-(4-fluorophenyl)-N-[3-(1H-imidazol-2-yl)propyl]quinoxaline-6-carboxamide] | 1% |  | < 100 nM | 93%
9 | O=C(NCCCc1ncc[nH]1)c1ccc2nc(-c3ccc(F)cc3)c(-c3cc(C(F)(F)F)ccc3F)nc2c1 [Compound I-451, 2-(4-fluorophenyl)-3-[2-fluoro-5-(trifluoromethyl)phenyl]-N-[3-(1H-imidazol-2-yl)propyl]quinoxaline-6-carboxamide] | 2% |  | < 100 nM | 97%
10 | CC(C)Oc1nc2ccc(C(=O)NCc3ccc4nccn4c3)cc2nc1-c1ccc(F)cc1 [Compound I-452, 3-(4-Fluorophenyl)-N-(imidazo[1,2-a]pyridin-6-ylmethyl)-2-isopropoxyquinoxaline-6-carboxamide] | 3% |  | 100 to 500 nM | 75%
11 | O=C(NCCCc1ncc[nH]1)c1ccc2nc(-n3cnc4ccccc43)c(-c3ccc(F)cc3)nc2c1 [Compound I-453, 2-(1H-benzimidazol-1-yl)-3-(4-fluorophenyl)-N-[3-(1H-imidazol-2-yl)propyl]quinoxaline-6-carboxamide] | 3% |  | 100 to 500 nM | 88%
12 | O=C(NCCCc1ncc[nH]1)c1ccc2nc(OCc3ccccc3Cl)c(-c3ccc(F)cc3)nc2c1 [Compound I-454, 2-[(2-chlorobenzyl)oxy]-3-(4-fluorophenyl)-N-[3-(1H-imidazol-2-yl)propyl]quinoxaline-6-carboxamide] | 2% |  | < 100 nM | 95%
13 | O=C(NCCCc1ncc[nH]1)c1ccc2nc(-c3ccc(F)cc3)c(-c3ccc(Cl)cc3F)nc2c1 [Compound I-455, 3-(4-chloro-2-fluorophenyl)-2-(4-fluorophenyl)-N-[3-(1H-imidazol-2-yl)propyl]quinoxaline-6-carboxamide] | 3% |  | 100 to 500 nM | 80%
14 | CN(C)C1CCC(Oc2nc3ccc(C(=O)NCCCc4ncc[nH]4)cc3nc2-c2ccc(F)cc2)CC1 (stereo not drawn) [Compound I-456, 2-{[4-(dimethylamino)cyclohexyl]oxy}-3-(4-fluorophenyl)-N-[3-(1H-imidazol-2-yl)propyl]quinoxaline-6-carboxamide] | 2% |  | < 100 nM | > 99%
15 | COC1CCN(c2nc3ccc(C(=O)NCCCc4ncc[nH]4)cc3nc2-c2ccc(F)cc2)C1 (stereo not drawn) [Compound I-457, 3-(4-fluorophenyl)-N-[3-(1H-imidazol-2-yl)propyl]-2-(3-methoxypyrrolidin-1-yl)quinoxaline-6-carboxamide] | 2% |  | < 100 nM | 98%
16 | N#Cc1cccc(-c2nc3cc(C(=O)NCCCc4ncc[nH]4)ccc3nc2-c2ccc(F)cc2)c1 [Compound I-458, 3-(3-cyanophenyl)-2-(4-fluorophenyl)-N-[3-(1H-imidazol-2-yl)propyl]quinoxaline-6-carboxamide] | 2% |  | 100 to 500 nM | 81%
17 | O=C(NCCCc1ncc[nH]1)c1ccc2nc(OCc3ncc[nH]3)c(-c3ccc(F)cc3)nc2c1 [Compound I-459, 3-(4-fluorophenyl)-2-(1H-imidazol-2-ylmethoxy)-N-[3-(1H-imidazol-2-yl)propyl]quinoxaline-6-carboxamide] | > 99% |  | 500 to 1000 nM | 47%
18 | Cn1ccc(COc2nc3ccc(C(=O)NCCCc4ncc[nH]4)cc3nc2-c2ccc(F)cc2)n1 [Compound I-460, 3-(4-fluorophenyl)-N-[3-(1H-imidazol-2-yl)propyl]-2-[(1-methyl-1H-pyrazol-3-yl)methoxy]quinoxaline-6-carboxamide] | 2% |  | < 100 nM | 99%
19 | O=C(NCCCc1ncc[nH]1)c1ccc2nc(-c3ccc(F)cc3)c(-c3ccc4c(c3)OCO4)nc2c1 [Compound I-461, 3-(1,3-benzodioxol-5-yl)-2-(4-fluorophenyl)-N-[3-(1H-imidazol-2-yl)propyl]quinoxaline-6-carboxamide] | 2% |  | 100 to 500 nM | 86%
20 | C#CCOc1nc2ccc(C(=O)NCCCc3ncc[nH]3)cc2nc1-c1ccc(F)cc1 [Compound I-462, 3-(4-fluorophenyl)-N-[3-(1H-imidazol-2-yl)propyl]-2-(prop-2-yn-1-yloxy)quinoxaline-6-carboxamide] | 2% |  | < 100 nM | 95%
21 | O=C(NCCCc1ncc[nH]1)c1ccc2nc(-c3ccc(F)cc3)c(-c3cccc(Cl)c3)nc2c1 [Compound I-463, 3-(3-chlorophenyl)-2-(4-fluorophenyl)-N-[3-(1H-imidazol-2-yl)propyl]quinoxaline-6-carboxamide] | 3% |  | < 100 nM | 97%
22 | O=C(NCc1nc2cnccc2[nH]1)c1ccc2nc(-c3ccc(F)cc3)c(-c3ccc(F)cc3)nc2c1 [Compound I-464, 2,3-bis(4-fluorophenyl)-N-(1H-imidazo[4,5-c]pyridin-2-ylmethyl)quinoxaline-6-carboxamide] | 0% |  | < 100 nM | > 99%
23 | O=C(NCCCc1ncc[nH]1)c1ccc2nc(N3CCCC3)c(-c3ccc(F)cc3)nc2c1 [Compound I-465, 3-(4-fluorophenyl)-N-[3-(1H-imidazol-2-yl)propyl]-2-(pyrrolidin-1-yl)quinoxaline-6-carboxamide] | 2% |  | < 100 nM | 98%
24 | COc1cc(-c2nc3cc(C(=O)NCCCc4ncc[nH]4)ccc3nc2-c2ccc(F)cc2)c(F)cn1 [Compound I-466, 3-(5-fluoro-2-methoxy-4-pyridyl)-2-(4-fluorophenyl)-N-[3-(1H-imidazol-2-yl)propyl]quinoxaline-6-carboxamide] | 2% |  | < 100 nM | 95%
25 | COc1ccc(C)c(-c2nc3cc(C(=O)NCCCc4ncc[nH]4)ccc3nc2-c2ccc(F)cc2)c1 [Compound I-467, 2-(4-fluorophenyl)-N-[3-(1H-imidazol-2-yl)propyl]-3-(5-methoxy-2-methylphenyl)quinoxaline-6-carboxamide] | 2% |  | < 100 nM | 94%
26 | O=C(NCCCc1ncc[nH]1)c1ccc2nc(O[C@H]3CCOC3)c(-c3ccc(F)cc3)nc2c1 [Compound I-468, 3-(4-fluorophenyl)-N-[3-(1H-imidazol-2-yl)propyl]-2-[(3S)-tetrahydrofuran-3-yloxy]quinoxaline-6-carboxamide] | 2% |  | < 100 nM | 99%
